The experiment concerns the target T1, AR protein in VCaP cells (Homo sapiens, UniProt P10275).
T1 construct: endogenous in cells; host or cells: VCaP cells
T1 sequence (P10275 1-920): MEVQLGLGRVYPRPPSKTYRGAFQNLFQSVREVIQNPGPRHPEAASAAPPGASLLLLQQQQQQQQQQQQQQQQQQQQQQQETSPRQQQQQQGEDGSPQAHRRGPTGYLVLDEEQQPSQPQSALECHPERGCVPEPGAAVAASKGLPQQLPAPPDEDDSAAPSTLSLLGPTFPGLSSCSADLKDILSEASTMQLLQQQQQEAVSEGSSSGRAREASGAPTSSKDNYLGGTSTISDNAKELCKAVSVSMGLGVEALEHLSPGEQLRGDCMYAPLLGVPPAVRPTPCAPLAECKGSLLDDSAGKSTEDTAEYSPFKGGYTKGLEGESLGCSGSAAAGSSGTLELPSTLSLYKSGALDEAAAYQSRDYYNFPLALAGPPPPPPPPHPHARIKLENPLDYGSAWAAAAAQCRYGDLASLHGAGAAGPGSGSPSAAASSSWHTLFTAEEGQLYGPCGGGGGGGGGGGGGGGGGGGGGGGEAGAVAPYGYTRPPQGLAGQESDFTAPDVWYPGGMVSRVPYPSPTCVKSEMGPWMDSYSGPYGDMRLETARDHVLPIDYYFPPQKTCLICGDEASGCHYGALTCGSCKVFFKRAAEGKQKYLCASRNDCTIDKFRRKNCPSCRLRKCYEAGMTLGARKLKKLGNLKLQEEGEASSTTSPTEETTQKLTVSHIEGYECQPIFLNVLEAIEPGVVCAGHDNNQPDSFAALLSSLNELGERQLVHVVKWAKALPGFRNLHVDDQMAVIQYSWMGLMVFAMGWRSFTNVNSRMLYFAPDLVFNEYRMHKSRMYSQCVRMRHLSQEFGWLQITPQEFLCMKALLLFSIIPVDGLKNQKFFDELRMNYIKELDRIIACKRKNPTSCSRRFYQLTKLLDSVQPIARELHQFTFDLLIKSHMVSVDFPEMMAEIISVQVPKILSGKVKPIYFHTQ
In words: VCAP AR Degradation Assay. The experiment is classed as cell-based. The note with it: 24 h, AR ELISA; for DC50: concentration at 50% of DMSO control (50% AR degradation); for Y: lowest measured AR level normalized to DMSO control. On the procedure:
VCAP AR Degradation Assay. Test compounds were pre-dispensed into a Corning CellBind 96-well clear bottom plate (Cat #3300) using an acoustic dispenser to make a 10-point concentration series at 1:3 dilution for each compound. The final top concentration of each compound was 5 μM. DMSO at a final concentration of 0.1% was used as a control. VCaP cells cultured in DMEM with 8% fetal bovine serum (FBS) were seeded at 50K cells per well in a 200 μL volume into the compound plate and incubated at 37° C. in a CO2 incubator for 24 h. The medium was carefully removed from the cells and the plate was placed on ice. One hundred μL of ice-cold 1× cell lysis buffer from Cell Signaling Technologies (Cat #9803) was added to each well of the cells and the plate was incubated at 4° C. on a shaker for 1 h. Fifteen μL of cell lysate was used for AR ELISA detection using a PathScan Total Sandwich AR ELISA kit (Cell Signaling Technology, Cat #12580). AR levels in compound-treated wells were normalized to that of DMSO control and expressed as percent of control (PoC) (y). A Four Parameter Logistic Model (Sigmoidal Dose-Response Model) was used to determine the compound's DC50, and EC50, using the following equation: y=(A+((B−A)/(1+((C/x)^D)))) • A=YMin (lowest AR level normalized to DMSO control in response to compound treatment, as determined by curve fit) • B=YMax (maximum AR level as determined by curve fit) • C=EC50 • D=Hill Slope • x=compound concentration • EC50=the concentration of compound when y=(YMax−YMin)/2 • DC50=the concentration of the compound when y=50% of DMSO control (50% AR degradation) • y=AR protein level normalized to DMSO control
The lowest measured AR level normalized to DMSO control in response to compound treatment, termed Y value, was used to characterize the compound-mediated AR degradation efficiency.
(In general: An ELISA detects its analyte on a solid surface through an enzyme-linked reagent.)

By DC50 is commonly meant the midpoint of the concentration-degradation curve. Read a high DC50 as a less potent degrader.

Counter-ions that a name gives are not always drawn.

As to `C[C@@H]1C[C@H](OCCC[C@H]2CC[C@H](N3C(=S)N(c4cnc(C#N)c(C(F)(F)F)c4)C(=O)C3(C)C)CC2)C[C@H](C)N1CC(=O)Nc1cccc(NC2CCC(=O)NC2=O)c1` (stereo partly drawn) [Cmpd 33, 2-((2R,4r,6S)-4-(3-((trans)-4-(3-(6-Cyano-5-(trifluoromethyl)pyridin-3-yl)-5,5-dimethyl-4-oxo-2-thioxoimidazolidin-1-yl)cyclohexyl)propoxy)-2,6-dimethylpiperidin-1-yl)-N-(3-((2,6-dioxopiperidin-3-yl)amino)phenyl)acetamide hydrochloride], the 50% degradation concentration (DC50) lay within 5 to 10 nM and the Y entry was “** (15%<Y≤20%)”.

On to `C[C@@H]1CN(CCC[C@H]2CC[C@H](N3C(=S)N(c4ccc(C#N)c(C(F)(F)F)c4)C(=O)C3(C)C)CC2)C[C@H](C)N1CC(=O)Nc1cccc(N[C@@H]2CCC(=O)NC2=O)c1` [Cmpd 6, 2-((2R,6S)-4-(3-(trans-4-(3-(4-Cyano-3-(trifluoromethyl)phenyl)-5,5-dimethyl-4-oxo-2-thioxoimidazolidin-1-yl)cyclohexyl)propyl)-2,6-dimethylpiperazin-1-yl)-N-(3-(((R)-2,6-dioxopiperidin-3-yl)amino)phenyl)acetamide hydrochloride], for which the DC50 was 5 to 10 nM and the Y result is “* (0<Y≤15%)”.

As for `C[C@@H]1CN(CCO[C@H]2CC[C@H](N3C(=S)N(c4cnc(C#N)c(C(F)(F)F)c4)C(=O)C3(C)C)CC2)C[C@H](C)N1CC(=O)Nc1cccc(NC2CCC(=O)NC2=O)c1` (stereo partly drawn) [Cmpd 5, 2-((2R,6S)-4-(2-((trans-4-(3-(6-Cyano-5-(trifluoromethyl)pyridin-3-yl)-5,5-dimethyl-4-oxo-2-thioxoimidazolidin-1-yl)cyclohexyl)oxy)ethyl)-2,6-dimethylpiperazin-1-yl)-N-(3-((2,6-dioxopiperidin-3-yl)amino)phenyl)acetamide hydrochloride], the DC50 was no more than 5 nM and the Y result is listed as “*** (25%<Y<50%)”.

Take `C[C@@H]1CN(CCO[C@H]2CC[C@H](N3C(=S)N(c4ccc(C#N)c(C(F)(F)F)c4)C(=O)C3(C)C)CC2)C[C@H](C)N1CC(=O)Nc1cccc(N[C@@H]2CCC(=O)NC2=O)c1` [Cmpd 3, 2-((2R,6S)-4-(2-((trans-4-(3-(4-Cyano-3-(trifluoromethyl)phenyl)-5,5-dimethyl-4-oxo-2-thioxoimidazolidin-1-yl)cyclohexyl)oxy)ethyl)-2,6-dimethylpiperazin-1-yl)-N-(3-(((R)-2,6-dioxopiperidin-3-yl)amino)phenyl)acetamide hydrochloride]: the half-maximal degradation concentration (DC50) lay within 5 to 10 nM and the Y result was “*** (25%<Y<50%)”.

In the case of `CC1(C)C(=O)N(c2cnc(C#N)c(C(F)(F)F)c2)C(=S)N1[C@H]1CC[C@H](OCCN2CCN(CC(=O)Nc3cc(C#N)cc(NC4CCC(=O)NC4=O)c3)[C@@H](C(F)(F)F)C2)CC1` (stereo partly drawn) [Cmpd 31, N-(3-Cyano-5-((2,6-dioxopiperidin-3-yl)amino)phenyl)-2-((R)-4-(2-(((trans)-4-(3-(6-cyano-5-(trifluoromethyl)pyridin-3-yl)-5,5-dimethyl-4-oxo-2-thioxoimidazolidin-1-yl)cyclohexyl)oxy)ethyl)-2-(trifluoromethyl)piperazin-1-yl)acetamide], the DC50 was no more than 5 nM and the Y result is on record as “* (0<Y≤15%)”.

`CC1(C)C(=O)N(c2ccc(C#N)c(C(F)(F)F)c2)C(=S)N1[C@H]1CC[C@H](OCCN2CCN(CC(=O)Nc3cc(F)cc(NC4CCC(=O)NC4=O)c3)[C@@H](C(F)(F)F)C2)CC1` (stereo partly drawn) [Cmpd 23, 2-((R)-4-(2-(((trans)-4-(3-(4-Cyano-3-(trifluoromethyl)phenyl)-5,5-dimethyl-4-oxo-2-thioxoimidazolidin-1-yl)cyclohexyl)oxy)ethyl)-2-(trifluoromethyl)piperazin-1-yl)-N-(3-((2,6-dioxopiperidin-3-yl)amino)-5-fluorophenyl)acetamide]: the DC50 fell in the range of 5 to 10 nM and the Y result is on record as “* (0<Y≤15%)”.

`C[C@@H]1C[C@H](CCO[C@H]2CC[C@H](N3C(=S)N(c4cnc(C#N)c(C(F)(F)F)c4)C(=O)C3(C)C)CC2)C[C@H](C)N1CC(=O)Nc1cccc(NC2CCC(=O)NC2=O)c1` (stereo partly drawn) [Cmpd 21, 2-((2S,4r,6R)-4-(2-((trans-4-(3-(6-Cyano-5-(trifluoromethyl)pyridin-3-yl)-5,5-dimethyl-4-oxo-2-thioxoimidazolidin-1-yl)cyclohexyl)oxy)ethyl)-2,6-dimethylpiperidin-1-yl)-N-(3-((2,6-dioxopiperidin-3-yl)amino)phenyl)acetamide]: the DC50 is no more than 5 nM and the Y entry was “* (0<Y≤15%)”.

For `C[C@@H]1C[C@H](OCC[C@H]2CC[C@H](N3C(=S)N(c4ccc(C#N)c(C(F)(F)F)c4)C(=O)C3(C)C)CC2)C[C@H](C)N1CC(=O)Nc1cccc(NC2CCC(=O)NC2=O)c1` (stereo partly drawn) [Cmpd 36, 2-((2R,4r,6S)-4-(2-((trans)-4-(3-(4-Cyano-3-(trifluoromethyl)phenyl)-5,5-dimethyl-4-oxo-2-thioxoimidazolidin-1-yl)cyclohexyl)ethoxy)-2,6-dimethylpiperidin-1-yl)-N-(3-((2,6-dioxopiperidin-3-yl)amino)phenyl)acetamide], the half-maximal degradation concentration (DC50) fell in the range of 10 to 100 nM and the Y entry was “** (15%<Y≤20%)”.

As to `C[C@@H]1CN(CCO[C@H]2CC[C@H](N3C(=S)N(c4ccc(C#N)c(C(F)(F)F)c4)C(=O)C3(C)C)CC2)C[C@H](C)N1CC(=O)Nc1cccc(NC2CCC(=O)NC2=O)c1` (stereo partly drawn) [Cmpd 1, 2-((2R,6S)-4-(2-((trans-4-(3-(4-Cyano-3-(trifluoromethyl)phenyl)-5,5-dimethyl-4-oxo-2-thioxoimidazolidin-1-yl)cyclohexyl)oxy)ethyl)-2,6-dimethylpiperazin-1-yl)-N-(3-((2,6-dioxopiperidin-3-yl)amino)phenyl)acetamide], the DC50 lay within 5 to 10 nM and the Y result was “*** (25%<Y<50%)”.

In the case of `C[C@@H]1CN(CCC[C@H]2CC[C@H](N3C(=S)N(c4ccc(C#N)c(Cl)c4)C(=O)C3(C)C)CC2)C[C@H](C)N1CC(=O)Nc1cccc(NC2CCC(=O)NC2=O)c1` (stereo partly drawn) [Cmpd 14, 2-((2S,6R)-4-(3-(trans-4-(3-(3-Chloro-4-cyanophenyl)-5,5-dimethyl-4-oxo-2-thioxoimidazolidin-1-yl)cyclohexyl)propyl)-2,6-dimethylpiperazin-1-yl)-N-(3-((2,6-dioxopiperidin-3-yl)amino)phenyl)acetamide hydrochloride], the DC50 lay in the range of 10 to 100 nM and the Y entry is reported as “*** (25%<Y<50%)”.

As to `CC1(C)C(=O)N(c2cnc(C#N)c(C(F)(F)F)c2)C(=S)N1[C@H]1CC[C@H](OCCN2CCN(CC(=O)Nc3cc(Cl)cc(NC4CCC(=O)NC4=O)c3)[C@@H](C(F)(F)F)C2)CC1` (stereo partly drawn) [Cmpd 26, N-(3-Chloro-5-((2,6-dioxopiperidin-3-yl)amino)phenyl)-2-((R)-4-(2-(((trans)-4-(3-(6-cyano-5-(trifluoromethyl)pyridin-3-yl)-5,5-dimethyl-4-oxo-2-thioxoimidazolidin-1-yl)cyclohexyl)oxy)ethyl)-2-(trifluoromethyl)piperazin-1-yl)acetamide], the 50% degradation concentration (DC50) lay in the range of 5 to 10 nM and the Y result is on record as “* (0<Y≤15%)”.

These data come from US12103920B2, “Cereblon binding compounds, compositions thereof, and methods of treatment therewith” (Celgene Corporation, priority 2020, dated 2024).
